Source: PubChem BioAssay (NCI)
Values joined by “and” are separate entries in the source; they are usually repeats but may differ in a detail not shown here. Equal values may be shown once.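 Results reflect a 48-hour exposure of cells in 96-well plates to compound at five concentrations. GI50 = concentration required for 50% inhibition of growth. The concentration for full growth arrest is given as TGI.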

Experiments:
Assay in all cases: inhibition of tumour cell growth, NCI panel, 48 h
[1] = test system: NCI/ADR-RES ovarian
[2] = test system: SK-OV-3 ovarian
[3] = test system: SNB-19 CNS
[4] = test system: HT29 colon
[5] = test system: HCT-15 colon
[6] = test system: M14 melanoma
[7] = test system: RXF 393 renal
[8] = test system: T-47D breast
[9] = test system: 786-0 renal
[10] = test system: UACC-257 melanoma

Structure (SMILES)	TGI [1]	TGI [2]	TGI [3]	TGI [4]	TGI [5]	TGI [6]	TGI [7]	TGI [8]	TGI [9]	TGI [10]	GI50 [2]	GI50 [3]	GI50 [4]	GI50 [7]	GI50 [1]	GI50 [10]	GI50 [5]	GI50 [6]	GI50 [8]
Cc1[nH]c(=O)[nH]c(=S)c1C(=O)Nc1cccc2cc3ccccc3cc12	> 100 µM	> 100 µM	> 100 µM	> 100 µM	> 100 µM	> 100 µM	> 100 µM	> 100 µM											
COC1(OC)c2no[n+]([O-])c2C(OC)(OC)c2c1no[n+]2[O-]	62.8 µM		59.5 µM	37.7 µM	67.4 µM	26.9 µM	58.7 µM	> 100 µM	48.9 µM	25 µM									
O=C1C=CC(=O)c2c(O)c(N3CCN(CCOCCO)CC3)c(Cl)c(O)c21		13.5 µM and 7.9 µM and 19.9 µM	26.5 µM and 18.4 µM and 26.1 µM	1.66 µM and 1.61 µM and 1.07 µM	817 nM [middle of 4 runs]		0.422 µM and 1.1 µM and 2.96 µM				4.59 µM [middle of 4 runs]	13.4 µM [middle of 4 runs]	0.42 µM and 0.592 µM and 0.288 µM	0.192 µM and 0.344 µM and 1.35 µM					
CCC(CC(C)C)Nc1ccc(NC(CC)CC(C)C)cc1 (centres undefined)	39.8 µM		29.4 µM	30.5 µM	27.9 µM	34.7 µM	28.1 µM	26.7 µM		28.4 µM		15.9 µM	15.1 µM	14.9 µM	17.6 µM	13.3 µM	14.8 µM	16.8 µM	12.7 µM
C#CCC1(C(=O)OCC)C(=O)c2ccccc2N(C)C1=O (centres undefined)		> 100 µM	> 100 µM	> 100 µM	> 100 µM	> 100 µM													
CC1OC2OC3C(OCC(O)C3O)OC(=O)[C@]34CCC(C)(C)CC3C3=CCC5[C@@]6(C)C[C@H](O)[C@H](OC7OC(CO)C(O)C(O)C7OC7OCC(OC(=O)CC(C)(O)CC(=O)OC1C(OC1OC(CO)C(O)C(O)C1O)C2O)C(O)C7O)[C@@](C)(CO)C6CC[C@@]5(C)[C@]3(C)CC4 (some centres undefined)	19.1 µM	22.8 µM	22.9 µM	19.4 µM	22.5 µM	15 µM		20.3 µM	15.5 µM	12.7 µM									
C=C(C)[C@@H]1CC[C@]2(C(=O)O)CC[C@]3(C)[C@H](CCC4[C@@]5(C)CC[C@H](C(=O)/C=C/c6ccc(O)c(O)c6)C(C)(C)[C@@H]5CC[C@]43C)[C@@H]12 (some centres undefined)	> 100 µM	19.4 µM	> 100 µM		26.8 µM	14.7 µM	> 100 µM	95.7 µM	30.2 µM	11 µM									
Cc1ccc(-c2n[nH]c(=O)n2/N=C\c2ccccc2)cc1	> 100 µM		> 100 µM	> 100 µM	> 100 µM	> 100 µM	> 81.5 µM	> 100 µM	> 100 µM	> 100 µM									
O=C1C=CC(=O)c2c(Cl)ccc(O)c21	42.1 µM	> 100 µM	> 100 µM	44.9 µM	39.1 µM		29.7 µM			29.8 µM									
CC(C)OC1OC(CO)C(O)CC1n1cc(F)c(=O)[nH]c1=O (centres undefined)	> 100 µM		> 100 µM	> 100 µM	> 100 µM	> 100 µM	> 100 µM	> 100 µM	> 100 µM	> 100 µM									
O=C1c2ccccc2-c2[nH]c3cn[nH]c(=O)c3c21	> 100 µM	> 100 µM	> 100 µM	> 100 µM	> 100 µM	> 100 µM		> 100 µM	> 100 µM	> 100 µM									
C/C(=N\Nc1nc2ccccc2[nH]1)c1cc2ccccc2cn1	1.16 µM	12.7 µM	1.64 µM	1.02 µM	2.51 µM	0.357 µM		1.12 µM	0.743 µM	5.67 µM									
COC(=O)c1c(-c2ccc(Cl)cc2)cc2c3ccccc3n(C)c2c1C(=O)OC	> 100 µM	> 100 µM	> 100 µM	> 100 µM	> 100 µM	> 100 µM			> 100 µM	> 100 µM									
Nc1nc(Cl)cc(NCC2(O)CCCC2)n1	> 100 µM	> 100 µM		> 100 µM	> 100 µM		> 100 µM	> 100 µM	> 100 µM	> 100 µM									
CO[C@]1(CN2CCN3CCCC[C@@H]3C2)/C=C/C[C@H](C)[C@@H](C)S(=O)(=O)NC(=O)c2ccc3c(c2)N(C[C@@H]2CC[C@H]21)C[C@@]1(CCCc2cc(Cl)ccc21)CO3		7.5 µM	4.62 µM					5.11 µM		9.34 µM	2.67 µM	2.02 µM				2.82 µM			1.87 µM
COc1ccc(CCN2CCc3c(C)c(C#N)c4nc5ccccc5n4c32)cc1OC	> 100 µM	> 100 µM	> 100 µM	> 100 µM	> 100 µM	> 100 µM	> 100 µM		> 100 µM	> 100 µM									
NC(=O)CO/N=C1/C(c2c(O)[nH]c3ccccc23)=Nc2ccccc21	> 100 µM	> 100 µM	> 100 µM	> 100 µM	> 100 µM	> 100 µM			> 100 µM	> 100 µM									

Structure (SMILES)	TGI [1]	TGI [2]	TGI [3]	TGI [4]	TGI [5]	TGI [6]	TGI [7]	TGI [8]	TGI [9]	TGI [10]	GI50 [2]	GI50 [3]	GI50 [4]	GI50 [7]	GI50 [1]	GI50 [10]	GI50 [5]	GI50 [6]	GI50 [8]
CSc1nc(NC(C)C)c2c(n1)Sc1nc3ccccc3n1C2O (centres undefined)		> 100 µM		> 100 µM	> 100 µM	> 100 µM	30.4 µM	22.4 µM	> 100 µM	> 100 µM									
CC(=O)CC(=O)CCC(=O)O		> 100 µM	> 100 µM	> 100 µM	> 100 µM	> 100 µM	> 100 µM			> 100 µM									
CC(=O)O[C@H]1CC[C@@]2(C)[C@H](CC[C@@H]3[C@@H]2CC[C@]2(C)[C@@H](c4ccc(=O)oc4)C[C@H]4O[C@]342)C1	3.82 µM	5.68 µM	9.36 µM	12.7 µM	29.5 µM		0.673 µM			6.89 µM									
O=C(Nc1cccc(-n2cc(-c3ccncc3)c(-c3ccc(O)c(Cl)c3)n2)c1)c1cccc(C(F)(F)F)c1	> 100 µM	> 100 µM	> 100 µM	> 100 µM	> 100 µM	> 100 µM	5.64 µM	> 100 µM		> 100 µM	99.1 µM	9.36 µM	5.18 µM	1.1 µM	4.09 µM	8.15 µM	1.98 µM	2.72 µM	3 µM
COc1c(C)c(C/C=C(\C)CC/C=C(\C)CCC=C(C)C)c(OC)c(OC)c1OC	> 100 µM	> 100 µM	> 100 µM	> 100 µM	> 100 µM	> 100 µM	> 100 µM		> 100 µM	> 100 µM									
Cc1cc2cc3c(cc2c(-c2ccc(N)cc2)n1)OCO3	> 100 µM	> 100 µM	> 100 µM	62.2 µM	> 100 µM	> 100 µM		> 100 µM	57.4 µM	> 100 µM									
CC1(C2CCC3(C)OC3C2)CO1 (centres undefined)		> 100 µM	> 100 µM	> 100 µM		> 100 µM	> 100 µM		> 100 µM	> 100 µM									
Cc1nc2ccc(Cl)cc2c2c1CCN2c1ccccc1	26 µM		78.5 µM	> 100 µM	95.3 µM		18.6 µM	36.3 µM	25.2 µM	29.1 µM									
CC(=O)/C(=C\c1ccc(Cl)c(Cl)c1)C(=O)C(C)CN(C)C (centres undefined)	72.5 µM	37.1 µM	5.56 µM	24.1 µM	10.1 µM	24.2 µM		12.3 µM	8.96 µM	23.7 µM									
CCOC(=O)C1(C(F)(F)F)N=C(CC)OC(N2CCOCC2)=N1 (centres undefined)	> 100 µM	> 100 µM	> 100 µM	> 100 µM	> 100 µM	> 100 µM	> 100 µM	> 100 µM		> 100 µM									
O=C(CC1Sc2ccccc2NC1=O)Nc1ccc(Cl)cc1 (centres undefined)		> 100 µM	> 100 µM	> 100 µM	> 100 µM	> 100 µM	67.2 µM			> 100 µM									
C/C(Nc1ccc(Cl)cc1Cl)=C1/CCOC1=O	> 100 µM		67.1 µM	> 100 µM	> 100 µM		39.8 µM	> 100 µM	> 100 µM	> 100 µM									
CSc1ccc(/C=C2\N=C(c3ccccc3)N(/N=C/c3cc4cc(C)ccc4nc3Cl)C2=O)cc1	78.1 µM	66.1 µM	43.1 µM	62.1 µM	96.5 µM	38.4 µM		91 µM	35.1 µM	39.8 µM									
CS(=O)(=O)NC12CCC(c3ccccc31)c1ccccc12	> 100 µM	> 100 µM	> 100 µM	> 100 µM	> 100 µM	> 100 µM		> 100 µM	> 100 µM										
CCOC(=O)c1cn(C)c(=S)n2c1nc1ccccc12	> 100 µM		> 100 µM		> 100 µM	> 100 µM	> 100 µM	> 100 µM	> 100 µM	> 100 µM									
S=C(NCc1ccccc1)N/N=C/c1ccccn1	8.52 µM	> 29 µM	> 100 µM	> 100 µM	> 40.5 µM	9.32 µM		> 100 µM	> 65.3 µM	> 100 µM									
